Key:
[1] = tested on: 23132-87 (Gastric Carcinoma); experiment: Bliss excess, mean over the matrix (fraction); higher = more synergy
Summary of the method: (§1)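 After 24 hours at 37°C and 5% CO2 in 1536-well plates, cells in DMEM/F12 or RPMI plus 10% FBS received two-drug dose matrices for 72 hours. Viability came from CellTiter-Glo 2.0 luminescence and was scaled as inhibition, anchored at 0 by vehicle wells and at 1 by blank wells. Combination Emax is taken as the second-highest inhibition in the matrix, and Bliss excess as the observed combination effect less EA + EB − EA·EB, with EA and EB the single-agent effects.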

A2058 (Melanoma) [2] = experiment: as above
Summary of the method: as §1

[3] = tested on: CAL-120 (Breast Carcinoma); experiment: as above
Summary of the method: as §1

[4] = tested on: FADU (Head and Neck Carcinoma); experiment: as above
Summary of the method: as §1

GB-1 (Glioblastoma) [5] = experiment: as above
Summary of the method: as §1

[6] = tested on: GP5d (Colorectal Carcinoma); experiment: as above
Summary of the method: as §1

[7] = tested on: HCT-15 (Colorectal Carcinoma); experiment: as above
Summary of the method: as §1

[8] = tested on: HEC-1 (Endometrial Carcinoma); experiment: as above
Summary of the method: as §1

[9] = tested on: KE-37 (T-Lymphoblastic Leukemia); experiment: as above
Summary of the method: as §1

[10] = tested on: LB996-RCC (Kidney Carcinoma); experiment: as above
Summary of the method: as §1

LN-229 (Glioblastoma) [11] = experiment: as above
Summary of the method: as §1

[12] = tested on: LXF-289 (Lung Adenocarcinoma); experiment: as above
Summary of the method: as §1

[13] = tested on: NCI-H23 (Lung Adenocarcinoma); experiment: as above
Summary of the method: as §1

[14] = tested on: NCI-H446 (Small Cell Lung Carcinoma); experiment: as above
Summary of the method: as §1

[15] = tested on: OAW-42 (Ovarian Carcinoma); experiment: as above
Summary of the method: as §1

[16] = tested on: RERF-GC-1B (Gastric Carcinoma); experiment: as above
Summary of the method: as §1

[17] = tested on: RERF-LC-Sq1 (Squamous Cell Lung Carcinoma); experiment: as above
Summary of the method: as §1

SF268 (Low Grade Glioma) [18] = experiment: as above
Summary of the method: as §1

[19] = tested on: SU-DHL-10 (B-Cell Non-Hodgkin's Lymphoma); experiment: as above
Summary of the method: as §1

WM278 (Melanoma) [20] = experiment: as above
Summary of the method: as §1

WM793B (Melanoma) [21] = experiment: as above
Summary of the method: as §1

[22] = tested on: 23132-87 (Gastric Carcinoma); experiment: combination Emax (second highest fraction inhibited in the dose matrix, 72 h); higher = more inhibition; extreme values may be limits of the assay
Summary of the method: as §1

A2058 (Melanoma) [23] = experiment: as above
Summary of the method: as §1

[24] = tested on: CAL-120 (Breast Carcinoma); experiment: as above
Summary of the method: as §1

[25] = tested on: FADU (Head and Neck Carcinoma); experiment: as above
Summary of the method: as §1

GB-1 (Glioblastoma) [26] = experiment: as above
Summary of the method: as §1

[27] = tested on: GP5d (Colorectal Carcinoma); experiment: as above
Summary of the method: as §1

[28] = tested on: HCT-15 (Colorectal Carcinoma); experiment: as above
Summary of the method: as §1

[29] = tested on: HEC-1 (Endometrial Carcinoma); experiment: as above
Summary of the method: as §1

[30] = tested on: KE-37 (T-Lymphoblastic Leukemia); experiment: as above
Summary of the method: as §1

[31] = tested on: LB996-RCC (Kidney Carcinoma); experiment: as above
Summary of the method: as §1

LN-229 (Glioblastoma) [32] = experiment: as above
Summary of the method: as §1

[33] = tested on: LXF-289 (Lung Adenocarcinoma); experiment: as above
Summary of the method: as §1

[34] = tested on: NCI-H23 (Lung Adenocarcinoma); experiment: as above
Summary of the method: as §1

[35] = tested on: NCI-H446 (Small Cell Lung Carcinoma); experiment: as above
Summary of the method: as §1

[36] = tested on: OAW-42 (Ovarian Carcinoma); experiment: as above
Summary of the method: as §1

[37] = tested on: RERF-GC-1B (Gastric Carcinoma); experiment: as above
Summary of the method: as §1

[38] = tested on: RERF-LC-Sq1 (Squamous Cell Lung Carcinoma); experiment: as above
Summary of the method: as §1

SF268 (Low Grade Glioma) [39] = experiment: as above
Summary of the method: as §1

[40] = tested on: SU-DHL-10 (B-Cell Non-Hodgkin's Lymphoma); experiment: as above
Summary of the method: as §1

WM278 (Melanoma) [41] = experiment: as above
Summary of the method: as §1

WM793B (Melanoma) [42] = experiment: as above
Summary of the method: as §1
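For Bliss excess, mean over the matrix in this document: after 72 h of two-drug dosing.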

## COc1nnc2ccc(N3CCC(c4ccc(OCCN5CCN(C)C(=O)[C@H]5C)cc4)CC3)nn12 [AZD5153] + CN(CC[C@H](CSC1=CC=CC=C1)NC2=C(C=C(C=C2)S(=O)(=O)NC(=O)C3=CC=C(C=C3)N4CCC(CC4)[C@H](C5=CC=CC=C5C6=CC=C(C=C6)Cl)O)S(=O)(=O)C(F)(F)F)CCO [AZD4320] (first compound max 1 µM, 7x7, partner max 1 µM)
[1]
  Bliss excess: -0.0551
A2058 (Melanoma) [2]
  Bliss excess: -0.0062
[3]
  Bliss excess: 0.0415
[4]
  Bliss excess: 0.0146
GB-1 (Glioblastoma) [5]
  Bliss excess: 0.0003
[6]
  Bliss excess: 0.0199
[7]
  Bliss excess: -0.0035
[8]
  Bliss excess: 0.0486
[9]
  Bliss excess: 0.0222
[10]
  Bliss excess: 0.0253
LN-229 (Glioblastoma) [11]
  Bliss excess: 0.0357
[12]
  Bliss excess: 0.0194
[13]
  Bliss excess: -0.0027
[14]
  Bliss excess: 0.107
[15]
  Bliss excess: 0.0913
[16]
  Bliss excess: 0.014
[17]
  Bliss excess: 0.0113
SF268 (Low Grade Glioma) [18]
  Bliss excess: -0.0183
[19]
  Bliss excess: -0.0269
WM278 (Melanoma) [20]
  Bliss excess: 0.0168
WM793B (Melanoma) [21]
  Bliss excess: -0.0257
[22]
  combination Emax: 0.349
A2058 (Melanoma) [23]
  combination Emax: 0.577
[24]
  combination Emax: 0.919
[25]
  combination Emax: 0.45
GB-1 (Glioblastoma) [26]
  combination Emax: 0.292
[27]
  combination Emax: 0.727
[28]
  combination Emax: 0.81
[29]
  combination Emax: 0.983
[30]
  combination Emax: 1
[31]
  combination Emax: 0.539
LN-229 (Glioblastoma) [32]
  combination Emax: 0.335
[33]
  combination Emax: 0.667
[34]
  combination Emax: 0.766
[35]
  combination Emax: 0.984
[36]
  combination Emax: 0.41
[37]
  combination Emax: 0.813
[38]
  combination Emax: 0.706
SF268 (Low Grade Glioma) [39]
  combination Emax: 0.552
[40]
  combination Emax: 1
WM278 (Melanoma) [41]
  combination Emax: 0.829
WM793B (Melanoma) [42]
  combination Emax: 0.508

## CC(=O)c1c(C)c2cnc(Nc3ccc(N4CCNCC4)cn3)nc2n(C2CCCC2)c1=O [Palbociclib] + CN(CC[C@H](CSC1=CC=CC=C1)NC2=C(C=C(C=C2)S(=O)(=O)NC(=O)C3=CC=C(C=C3)N4CCC(CC4)[C@H](C5=CC=CC=C5C6=CC=C(C=C6)Cl)O)S(=O)(=O)C(F)(F)F)CCO [AZD4320] (first compound max 10 µM, 7x7, partner max 1 µM)
[1]
  Bliss excess: -0.093
A2058 (Melanoma) [2]
  Bliss excess: -0.0261
[3]
  Bliss excess: -0.0614
[4]
  Bliss excess: -0.137
GB-1 (Glioblastoma) [5]
  Bliss excess: -0.111
[6]
  Bliss excess: 0.0238
[7]
  Bliss excess: -0.0286
[8]
  Bliss excess: -0.125
[9]
  Bliss excess: -0.0137
[10]
  Bliss excess: -0.0652
LN-229 (Glioblastoma) [11]
  Bliss excess: -0.059
[12]
  Bliss excess: -0.0091
[13]
  Bliss excess: -0.0367
[14]
  Bliss excess: -0.0065
[15]
  Bliss excess: -0.0177
[16]
  Bliss excess: -0.0147
[17]
  Bliss excess: -0.0176
SF268 (Low Grade Glioma) [18]
  Bliss excess: -0.0438
[19]
  Bliss excess: 0.0319
WM278 (Melanoma) [20]
  Bliss excess: -0.106
WM793B (Melanoma) [21]
  Bliss excess: -0.0525
[22]
  combination Emax: 0.578
A2058 (Melanoma) [23]
  combination Emax: 0.323
[24]
  combination Emax: 0.815
[25]
  combination Emax: 0.356
GB-1 (Glioblastoma) [26]
  combination Emax: 0.209
[27]
  combination Emax: 0.592
[28]
  combination Emax: 0.726
[29]
  combination Emax: 0.298
[30]
  combination Emax: 1
[31]
  combination Emax: 0.729
LN-229 (Glioblastoma) [32]
  combination Emax: 0.126
[33]
  combination Emax: 0.449
[34]
  combination Emax: 0.312
[35]
  combination Emax: 0.887
[36]
  combination Emax: 0.562
[37]
  combination Emax: 0.35
[38]
  combination Emax: 0.575
SF268 (Low Grade Glioma) [39]
  combination Emax: 0.35
[40]
  combination Emax: 0.995
WM278 (Melanoma) [41]
  combination Emax: 0.711
WM793B (Melanoma) [42]
  combination Emax: 0.474

Reference: the supplement of paper PMC11061612
